Results from patent publication US5147876A, “2,6-di,2,4,6-, 2,5,6-tri and 2,4,5,6-tetra-substituted pyrimidines, their pharmaceutically acceptable salts, pharmaceutical compositions containing same and their use in the treatment of neurological diseases” (Mitsui Petrochemical Industries, Ltd., priority 1988, dated 1992).

Columns and labels:
[1] = Acute toxicity on mice; format: in vivo; details: mouse, in vivo, ip, 24 hours after administration; read-out: Estimated LD50
Method: The acute toxicity of the compounds of the invention was examined by the following method.
Male ddy-strain 5-week old mice, 4-6- per group, were used as experimental animals. Each of the compounds was intraperitoneally (i.p.), and the toxicity of the compound was assessed 24 hours after the administration.

[2] = system: NS-20Y (mouse neuroblastoma cells); test: Activity on NS-20Y cells: appearance of neurites; format: cell-based
Method in brief: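 Mouse neuroblastoma NS-20Y cells were grown in polyornithine-coated dishes in DMEM with 10 % FCS, 100 units/ml penicillin G sodium and 100 micrograms/ml streptomycin sulfate, at 37° C under 5 % carbon dioxide, and exposed to compound. Cells were fixed with 4 % glutaraldehyde, stained with 0.05 % methylene blue, and the fraction bearing neurites at least twice the cell's long diameter was counted microscopically.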

[3] = system: neuro-2a (mouse neuroblastoma cells); test: Action on neuro-2a: proportion of cells containing outgrown neurites; format: cell-based; details: mean ± S.D.
Method in brief: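 Read-out is the percentage of neurite-bearing cells (neurite ≥2× long cell diameter), counted microscopically over more than 200 cells per well. Before fixation and staining, neuro-2a cells (1,000/well, DMEM + 10% FCS) were cultured for one day at 37 °C; up to six compound concentrations, three runs each.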

SMILES | LD50 at 24 h [1] | Number of cells having neurites with a length at least two times the diameter of each cell/total number of cells ([3]; 0.03 mM) | Number of cells having neurites with a length at least two times the diameter of each cell/total number of cells ([3]; 0.1 mM) | Number of cells in which neurites appeared/total number of cells ([2]; 24 hours, 0.1 mM) | Number of cells in which neurites appeared/total number of cells ([2]; 48 hours, 0.1 mM) | Number of cells having neurites with a length at least two times the diameter of each cell/total number of cells ([3]; 0.3 mM) | Number of cells having neurites with a length at least two times the diameter of each cell/total number of cells ([3]; 1 mM) | also measured
Cc1cnc(N2CCC(c3ccccc3)CC2)nc1N(C)C(=O)c1ccccc1 [Compound 424] | > 1000 mg/kg | 4.5 ± 1.4% | 7.6 ± 1.3% |  |  |  |  | Number of cells in which neurites appeared/total number of cells ([2]; 24 hours, 0.4 mM): 16/50; Number of cells in which neurites appeared/total number of cells ([2]; 48 hours, 0.4 mM): 3/50
CN(C(=O)c1ccccc1)c1ccnc(N2CCCc3ccccc32)n1 [Compound 328] | > 1000 mg/kg | 10.2 ± 8.2% | 28.0 ± 6.8% | 32/50 | 12/51 | 10.6 ± 3.4% |  | Number of cells in which neurites appeared/total number of cells ([2]; 48 hours, 0.025 mM): 8/50; Number of cells having neurites with a length at least two times the diameter of each cell/total number of cells ([3]; 0.01 mM): 6.6 ± 0.5%
CC1CCN(c2ccnc(N(C)C(=O)c3ccccc3)n2)CC1 [Compound 612] | 500 to 1000 mg/kg | 19.1 ± 3.0% | 19.4 ± 3.9% | 2/50 | 2/50 | 22.4 ± 2.4% |  | Number of cells having neurites with a length at least two times the diameter of each cell/total number of cells ([3]; 0.01 mM): 13.8 ± 1.5%
CCCCN(CCCC)c1nccc(N(C)C(=O)c2ccccc2)n1 [Compound 112] | > 1000 mg/kg | 4.8 ± 0.1% | 18.6 ± 5.2% |  |  | 2.6 ± 0.6% | 7.6 ± 4.9% | Number of cells in which neurites appeared/total number of cells ([2]; 24 hours, 0.025 mM): 4/51; Number of cells in which neurites appeared/total number of cells ([2]; 48 hours, 0.01 mM): 4/49; Number of cells in which neurites appeared/total number of cells ([2]; 48 hours, 0.025 mM): 9/50
CC(=O)N(C)c1ccnc(N2CCCCC2)n1 [Compound 128] | > 1000 mg/kg |  |  |  |  | 9.9 ± 0.6% | 19.8 ± 2.8% | Number of cells in which neurites appeared/total number of cells ([2]; 24 hours, 0.3 mM): 4/49; Number of cells in which neurites appeared/total number of cells ([2]; 24 hours, 1.0 mM): 23/55; Number of cells in which neurites appeared/total number of cells ([2]; 48 hours, 0.3 mM): 31/50; Number of cells in which neurites appeared/total number of cells ([2]; 48 hours, 0.5 mM): 21/50; Number of cells having neurites with a length at least two times the diameter of each cell/total number of cells ([3]; 0.5 mM): 9.1 ± 0.7%; Number of cells having neurites with a length at least two times the diameter of each cell/total number of cells ([3]; 2 mM): 14.3 ± 2.4%
CN(C(=O)c1ccccc1)c1ccnc(N2CCN(Cc3ccccc3)CC2)n1 [Compound 368] | 500 to 1000 mg/kg | 3.5 ± 0.5% | 9.0 ± 1.8% | 14/50 | 5/50 |  |  | Number of cells in which neurites appeared/total number of cells ([2]; 48 hours, 0.05 mM): 8/51
CN(C(=O)c1ccccc1)c1nccc(N2CCCCC2)n1 [Compound 604] | < 500 mg/kg |  | 18.7 ± 4.1% |  |  | 24.6 ± 2.9% |  | Number of cells in which neurites appeared/total number of cells ([2]; 24 hours, 0.02 mM): 6/50; Number of cells in which neurites appeared/total number of cells ([2]; 24 hours, 0.4 mM): 7/50; Number of cells in which neurites appeared/total number of cells ([2]; 48 hours, 0.02 mM): 2/50
CN(C(=O)c1ccccc1)c1ccnc(N2CCC(C(C)(C)C)CC2)n1 [Compound 152] | > 1000 mg/kg | 6.2 ± 2.3% | 33.8 ± 4.7% |  |  |  |  | Number of cells in which neurites appeared/total number of cells ([2]; 24 hours, 0.05 mM): 3/50; Number of cells in which neurites appeared/total number of cells ([2]; 48 hours, 0.025 mM): 2/50
COC(=O)c1cnc(NC(C)C)nc1C.O=C(O)/C=C\C(=O)O [Compound 804, 2-isopropylamino-4-methyl-5-methoxycarbonylpyrimidine maleate] | 500 to 1000 mg/kg |  |  |  |  | 9.4 ± 1.3% | 26.1 ± 6.8% | Number of cells in which neurites appeared/total number of cells ([2]; 24 hours, 0.25 mM): 8/55; Number of cells in which neurites appeared/total number of cells ([2]; 24 hours, 0.5 mM): 7/50; Number of cells in which neurites appeared/total number of cells ([2]; 48 hours, 0.25 mM): 8/50; Number of cells in which neurites appeared/total number of cells ([2]; 48 hours, 0.5 mM): 25/51; Number of cells having neurites with a length at least two times the diameter of each cell/total number of cells ([3]; 0.5 mM): 13.0 ± 2.1%; Number of cells having neurites with a length at least two times the diameter of each cell/total number of cells ([3]; 2 mM): 18.8 ± 3.1%
CC(=O)N(C)c1ccnc(N2CCCc3ccccc32)n1 [Compound 320] | > 1000 mg/kg |  | 7.2 ± 0.2% | 8/50 | 6/50 | 8.5 ± 1.1% |  | 
CC(=O)N(C)c1cc(C)nc(N2CCC(c3ccccc3)CC2)n1 [Compound 392] | 500 to 1000 mg/kg |  | 14.6 ± 6.0% | 8/50 | 3/43 | 30.9 ± 5.7% | 23.8 ± 4.2% | Number of cells in which neurites appeared/total number of cells ([2]; 48 hours, 0.05 mM): 6/51; Number of cells having neurites with a length at least two times the diameter of each cell/total number of cells ([3]; 3 mM): 11.1 ± 9.7%
O=C(c1ccccc1)N(Cc1ccccc1)c1ccnc(N2CCC(c3ccccc3)CC2)n1 [Compound 192] | 500 to 1000 mg/kg |  |  |  |  | 12.1 ± 1.5% | 14.6 ± 1.0% | Number of cells in which neurites appeared/total number of cells ([2]; 24 hours, 0.4 mM): 23/50; Number of cells in which neurites appeared/total number of cells ([2]; 48 hours, 0.4 mM): 4/50
CN(C(=O)c1ccccc1)c1ccnc(N2CCC(Cc3ccccc3)CC2)n1 [Compound 304] | > 1000 mg/kg |  | 38.1 ± 1.6% | 40/50 |  | 15.3 ± 6.3% |  | Number of cells in which neurites appeared/total number of cells ([2]; 48 hours, 0.01 mM): 3/50
CN(C(=O)c1ccccc1)c1ccnc(N2CCCC2)n1 [Compound 120] | > 1000 mg/kg |  | 4.9 ± 1.0% |  |  | 7.5 ± 4.1% |  | Number of cells in which neurites appeared/total number of cells ([2]; 24 hours, 0.5 mM): 23/50; Number of cells in which neurites appeared/total number of cells ([2]; 48 hours, 0.5 mM): 4/50
O=C(Nc1ccnc(N2CCC(c3ccccc3)CC2)n1)c1ccccc1 [Compound 160] | > 1000 mg/kg |  | 11.3 ± 6.3% |  |  | 6.7 ± 4.3% |  | Number of cells in which neurites appeared/total number of cells ([2]; 24 hours, 0.5 mM): 10/53; Number of cells in which neurites appeared/total number of cells ([2]; 48 hours, 0.5 mM): 2/50
